The text below walks through data of paper PMC10385824, “Antiproliferative and Tubulin-Destabilising Effects of 3-(Prop-1-en-2-yl)azetidin-2-Ones and Related Compounds in MCF-7 and MDA-MB-231 Breast Cancer Cells” (Pharmaceuticals, 2023).

Data set [1] concerns purified bovine brain tubulin. In words: Tubulin polymerization assay (light scattering, BK006 kit). To be noted: compound at 10 μM; for Vmax: 37 °C, 340 nm; for Fold Reduction in Vmax: relative to vehicle. Type of data set: biochemical. The protocol:
Tubulin polymerization was monitored using the BK006 kit obtained from Cytoskeleton Inc. (Denver, CO, USA). The values reported represent the average values determined from two independent assays. Purified bovine brain tubulin (>99%, 3 mg/mL) in buffer containing PIPES (80 mM, pH 6.9), EGTA (0.5 mM), MgCl2 (2 mM), GTP (1 mM) and glycerol (10%) was incubated at 37 °C in vehicle (1% DMSO or EtOH (v/v) in dH2O) or with compounds 9h, 9q, 9s, 10h, 10p, 10r, 11h, 11p, 11r, 17f (all at 10 µM concentration); CA-4 (10 μM) was used as control. In this assay, light scattering is related to the concentration of polymerised microtubules produced. Tubulin assembly was monitored turbidimetrically at 340 nm at 37 °C in a Spectramax 340 PC spectrophotometer (Molecular Devices, Sunnyvale, CA, USA).

The test system of a further data set is MDA-MB-231/ATCC. The experiment in a line: NCI-60 SRB screen, breast cancer. Type of data set: cell-based, human. The settings on record: Homo sapiens; MDA-MB-231; obtained from NCI; five concentrations 0.01–100 μM; 48 h; read-out: Antiproliferative Activity IC50.
Data set [2] is described as follows: HPLC stability study in plasma. It is filed as in vitro ADME, human. The settings on record: human, buffered plasma (plasma:buffer 1:9); Plasma; study over 264 h. The protocol:
Analytical high-performance liquid chromatography (HPLC) stability studies were performed as follows using Symmetry® column (C18, 5 µm, 4.6 × 150 mm), Waters 2487 Dual Wavelength Absorbance detector, Waters 1525 binary HPLC pump and Waters 717 plus Autosampler (Waters Corporation, Milford, MA, USA) with detection at 254 nm as previously described. Samples were analysed using mobile phase acetonitrile (80%): water (20%), flow rate (1 mL/min) over 10 min. […] First, 30 µL of compound stock solution was diluted with appropriate buffer (1 mL); sample was shaken and injected immediately. Samples were withdrawn and analysed at the following time points: t = 0 min, 5 min, 30 min, 60 min, 90 min, 120 min, 24 h and 48 h. (ii) Thermal stability: Compound stock solution (1 mL) was placed in a glass vial on a heating block for 4 h at 60 °C. The sample was then cooled, diluted (acetonitrile) and analysed. (ii) Oxidising conditions: H2O2 (3%, 0.2 mL) was added to compound stock solution (0.8 mL). The vial was vortexed and retained at 20 °C, and the sample was analysed at 60, 120 180 and 240 min. (iv) Acidic conditions: HCl (0.1 M, 0.2 mL) was added to stock solutions (0.8 mL). The vial was mixed by vortex and retained at 20 °C. A sample was neutralised with NaOH (0.1 M, 0.2 mL) at 60, 120, 180 and 240 min, followed by HPLC analysis. (v) Alkaline conditions: NaOH (0.1 M, 0.2 mL) was added to stock solution (0.8 mL) of the compound in a vial. The vial was mixed by vortex and retained at 20 °C. A sample was neutralised with HCl (0.1 M, 0.2 mL) at 60, 120, 180 and 240 min followed by HPLC analysis. (vi) Photostability study: Compounds (stock solution, 1 mL) were placed in a vial, exposed to UV light for 4 h and then analysed by HPLC as above. Stability studies in plasma: Approval for this study was obtained from the School of Pharmacy and Pharmaceutical Sciences Trinity College Dublin Research Ethics Committee (2020–06-01-MS). Following informed consent, blood was withdrawn from healthy volunteers, and plasma was obtained by centrifugation and kept at −20 °C until further use. […] A sample (250 µL) was then added to the Eppendorf tube containing ZnSO4.7H2O solution (500 µL) (2% w/v ZnSO4 solution in acetonitrile:water, 1:1). The samples were centrifuged (10,000 rpm, 3 min), filtered (0.2 micron filter) and analysed by HPLC as above. Further samples were taken at one-hour intervals.

Data set [3] in a line: HPLC stability under degradation conditions (acid, alkali, heat, light, oxidation). The settings on record: for remaining at 4 h / remaining at 312 h, 0.5 mg/mL / remaining at 5 h, 0.5 mg/mL: % Remaining; for remaining at 6 h: 30% H2O2 added to stock solution, Hydrogen peroxide (30 % H2O2, 0.2 mL), 20 °C; for remaining at 312 h, 0.5 mg/mL: solution in acetonitrile:water 80:20, daylight, Daylight (acetonitrile (80%):water (20%) 13 days); for remaining at 5 h, 0.5 mg/mL: stock solution in acetonitrile:water 80:20, heated, 80 °C (heating block, 5 h).
Protocol: Samples were analysed using mobile phase acetonitrile (80%): water (20%), flow rate (1 mL/min) over 10 min. […] First, 30 µL of compound stock solution was diluted with appropriate buffer (1 mL); sample was shaken and injected immediately. […] (ii) Thermal stability: Compound stock solution (1 mL) was placed in a glass vial on a heating block for 4 h at 60 °C. The sample was then cooled, diluted (acetonitrile) and analysed. (ii) Oxidising conditions: H2O2 (3%, 0.2 mL) was added to compound stock solution (0.8 mL).
a All samples were analysed using acetonitrile (80%):water (20%) as the mobile phase over
10 min and a flow rate of 1 mL/min.

For data set [4], the system named is MCF-7 human breast cancer cells. In words: cells.
The nature of data set [5]: HPLC stability study in phosphate buffers. It is filed as physicochemical. To be noted: for remaining at 264 h, 14.6 µg/mL: study over 264 h.
For data set [6], the system named is NCI 60 human cancer cell line panel. The experiment in a line: NCI 60 cell line screen (SRB), panel values. To be noted: for CC50: read-out: Mean LC50; for IC (TGI (total growth inhibition)): read-out: Mean TGI.
For data set [7], the system named is MDA-MB-231 human breast cancer cells. The experiment in a line: Alamar Blue cell viability (antiproliferative) assay. Type of data set: cell-based. The settings on record: read-out: IC50. Background: The colour change of resazurin is a common sign of viable cells or microbes.
The subject of data set [8] is microtubule network in MCF-7 cells. The experiment in a line: Immunofluorescence confocal microscopy. It is filed as cell-based, human. The settings on record: 16 h. Here is the method:
CA-4 and β-lactam 9q depolymerise the microtubule network in MCF-7 cells. […] After 16 h, the cells were fixed in 4% paraformaldehyde and stained with mouse monoclonal anti-α-tubulin−FITC antibody (clone DM1A) (green), Alexa Fluor 488 dye, and counterstained with DAPI (blue). The confocal images were obtained by Leica SP8 confocal microscopy with Leica application suite X software. Representative confocal micrograph images of three separate experiments are shown above [scale bar: […]].
The effects of β-lactam 9q on MCF-7 cytoskeleton were determined using confocal microscopy as previously described. MCF-7 cells were seeded at 1 × 10^5 cells/mL in glass slides with eight chambers (BD Biosciences, San Jose, CA, USA). […] Following treatment, cells were gently washed in PBS, fixed for 20 min with 4% paraformaldehyde in PBS and permeabilised in 0.5% Triton X-100. The cells were then washed with PBS-T (PBS containing 0.1% Tween), blocked in 5% bovine serum albumin diluted in PBS-T and incubated with mouse monoclonal anti-α-tubulin-FITC antibody (clone DM1A) (Sigma, Milwaulkee, WI, USA) (1:100) for 2 h at 20 °C. The cells were washed again with PBS-T and incubated with Alexa Fluor 488 dye (1:450) for 1 h at 20 °C. Following washes in PBST, the cells were mounted in Ultra Cruz Mounting Media (Santa Cruz Biotechnology, Santa Cruz, CA, USA), which contained 4,6-diamino-2-phenolindol dihydrochloride (DAPI). The immunofluorescence cell images were captured by Leica SP8 confocal microscopy and analysed with Leica application suite X software. Microscopy experiments were performed on three independent occasions, and the images for these experiments were obtained on the same day using identical conditions.

The mark [9] stands for this setting: 1M HCl added to stock solution, 1M HCl (0.1 mL, 20 °C, 4h).
[10] abbreviates: 1M HCl added to stock solution, 1M HCl (0.2 mL, 50 °C, 4h).
The mark [11] stands for this setting: MCF7, read-out: Antiproliferative Activity IC50, MCF-7, eight concentrations 0.001–50 μM, mean ± SEM, Table 3.
Setting [12] is: Homo sapiens, 60 cell, read-out: Mean GI50, mean over all NCI 60 cell lines.
Setting [13] is: read-out: Mean GI50, mean over all NCI 60 cell lines.

Where two headings read alike, the source gives them in different places.

What is called fraction remaining is what is left of the initial amount, in per cent. Higher therefore signals greater stability. Usually GI50 stands for the concentration at which growth is held to half of that of the control. As for `C=CCC1C(=O)N(c2cc(OC)c(OC)c(OC)c2)C1c1ccc(OC)cc1` (stereo not drawn) [10h, 3-Allyl-4-(4-methoxyphenyl)-1-(3,4,5-trimethoxyphenyl)azetidin-2-one], the Vmax in data set [1] turned out to be 0.0056 mOD/min. Also, the “Fold Reduction in Vmax” value in data set [1] is on record as 2.5. The values for the IC50 (with MDA-MB-231/ATCC; in data set [4] (setting [11])) were 120 nM and 35 ± 5 nM, respectively. The fraction remaining at 264 h, 41.3 µg/mL in data set [2] amounted to 100%. Further, the amount remaining at 4 h in data set [3] (setting [9]) is 97.5%; in data set [3] (setting [10]) it was 99.6%; in data set [3] (1M NaOH added to stock solution, 1M NaOH (0.1 mL, 20 °C, 4h)), 96%. For the same compound, the fraction remaining at 6 h in data set [3] amounted to 100%. Also, in data set [3], the fraction remaining at 312 h, 0.5 mg/mL was determined as 100%. In addition, the fraction remaining at 5 h, 0.5 mg/mL in [3] worked out at 100%. Moreover, the compound remaining in data set [5] (all pH values (4, 7.4, 9), after 11 days) is recorded as 24–41%. For the same compound, the stability in words result in data set [5] (over the pH range studied) is reported as “poor stability”. Besides, the fraction remaining at 264 h, 14.6 µg/mL in [5] (phosphate buffer, pH 4.0) was determined as 28%; in data set [5] (phosphate buffer, pH 7.4), 41%; in data set [5] (phosphate buffer, pH 9.0), 24%. In addition, the GI50 is less than 91.2 nM in data set [6] (setting [12]) and 75.9 nM in data set [6] (setting [13]). In addition, the CC50 in data set [6] (Homo sapiens, 60 cell) was 81300 nM. In addition, the IC (TGI (total growth inhibition)) in data set [6] (Homo sapiens, 60 cell) amounted to 17400 nM.

By half-life is commonly meant the time in which the quantity being followed falls by half. With `C=CCC1C(=O)N(c2cc(OC)c(OC)c(OC)c2)C1c1ccc(OC)c(N)c1` (stereo not drawn) [10r, 3-Allyl-4-(3-amino-4-methoxyphenyl)-1-(3,4,5-trimethoxyphenyl)azetidin-2-one], in data set [1], the Vmax was determined as 0.0029 mOD/min. Further, the “Fold Reduction in Vmax” value in [1] amounted to 3.4. For the same compound, the IC50 in data set [7] was 35 nM; in the data set with MDA-MB-231/ATCC, 35.2 nM; in [4] (MCF7, MCF-7) it was 10 to 33 nM; in [4] (setting [11]), 35 ± 4 nM. Moreover, the share remaining at 264 h, 41.3 µg/mL in data set [2] stood at 97%. The share remaining at 4 h in [3] (setting [9]) amounted to 91.8%; in data set [3] (setting [10]), 92.2%; in [3] (1M NaOH added to stock solution, 1M NaOH (0.2 mL, 50 °C, 4h)), 83.1%. Besides, the share remaining at 6 h in [3] turned out to be 8%. This compound showed a share remaining at 312 h, 0.5 mg/mL in [3] of 93%. Besides, the fraction remaining at 5 h, 0.5 mg/mL in data set [3] is 100%. Also, the fraction remaining at 264 h, 14.6 µg/mL came to 96% in data set [5] (phosphate buffer, pH 4.0); 99% in [5] (phosphate buffer, pH 7.4); 83% in data set [5] (phosphate buffer, pH 9.0). Besides, the half-life at 14.6 µg/mL in [5] (phosphate buffer, pH range studied, medium not specified, read-out: half-life (t½) (converted)) is greater than 24 h. In addition, the results for the GI50 in data set [6] (setting [12]) and in data set [6] (setting [13]) were less than 91.2 nM and 85.1 nM, respectively. For the same compound, the CC50 in [6] (Homo sapiens, 60 cell) was 79400 nM. Besides, the IC (TGI (total growth inhibition)) in data set [6] (Homo sapiens, 60 cell) was 53700 nM.

Regarding `CC(=O)O[C@H]1C(=O)[C@@]2(C)[C@H]([C@H](OC(=O)c3ccccc3)[C@]3(O)C[C@H](OC(=O)[C@H](O)[C@@H](NC(=O)c4ccccc4)c4ccccc4)C(C)=C1C3(C)C)[C@]1(OC(C)=O)CO[C@@H]1C[C@@H]2O` [paclitaxel], the “effect on microtubule network” value in data set [8] is “induced the formation of microtubule bundles and pseudo-asters”.
